# Calls of active or inactive are those of the source. The calls are words filed in the database; no cut-off is given here.
# Key:
# [1] = Cytotoxicity against human NCI60 cells; assay type: functional
# [2] = system: NCI-H226; test: Cytotoxicity against human NCI-H226 cells at 10 uM after 48 hrs by sulforhodamine B assay relative to control; assay type: functional
# [3] = system: SK-OV-3; test: Cytotoxicity against human SKOV3 cells at 10 uM after 48 hrs by sulforhodamine B assay relative to control; assay type: functional
# [4] = system: CAKI-1; test: Cytotoxicity against human CAKI-1 cells at 10 uM after 48 hrs by sulforhodamine B assay relative to control; assay type: functional
# [5] = system: UACC-62; test: Cytotoxicity against human UACC62 cells at 10 uM after 48 hrs by sulforhodamine B assay relative to control; assay type: functional
# [6] = system: NCI/ADR-RES; test: Cytotoxicity against human NCI/ADR-RES cells at 10 uM after 48 hrs by sulforhodamine B assay relative to control; assay type: functional
# [7] = system: LOX IMVI; test: Cytotoxicity against human LOXIMVI cells at 10 uM after 48 hrs by sulforhodamine B assay relative to control; assay type: functional
# [8] = species on record: Homo sapiens; test: Inhibition of telomerase (unknown origin) at 10 uM TRAP assay
# [9] = system: PC-3; test: Cytotoxicity against human PC3 cells at 10 uM after 48 hrs by sulforhodamine B assay relative to control; assay type: functional
# [10] = system: HCT-15; test: Cytotoxicity against human HCT15 cells at 10 uM after 48 hrs by sulforhodamine B assay relative to control; assay type: functional
# [11] = system: HOP-92; test: Cytotoxicity against human HOP92 cells at 10 uM after 48 hrs by sulforhodamine B assay relative to control; assay type: functional
# [12] = system: SF-539; test: Cytotoxicity against human SF539 cells at 10 uM after 48 hrs by sulforhodamine B assay relative to control; assay type: functional
# [13] = system: HT-29; test: Cytotoxicity against human HT-29 cells at 10 uM after 48 hrs by sulforhodamine B assay relative to control; assay type: functional
# [14] = system: M14; test: Cytotoxicity against human M14 cells at 10 uM after 48 hrs by sulforhodamine B assay relative to control; assay type: functional
# [15] = system: OVCAR-3; test: Cytotoxicity against human OVCAR3 cells at 10 uM after 48 hrs by sulforhodamine B assay relative to control; assay type: functional
# [16] = system: MCF7; test: Cytotoxicity against human MCF7 cells at 10 uM after 48 hrs by sulforhodamine B assay relative to control; assay type: functional
# [17] = system: NCI-H23; test: Cytotoxicity against human NCI-H23 cells at 10 uM after 48 hrs by sulforhodamine B assay relative to control; assay type: functional
# [18] = system: SNB-19; test: Cytotoxicity against human SNB19 cells at 10 uM after 48 hrs by sulforhodamine B assay relative to control; assay type: functional
# [19] = system: K562; test: Cytotoxicity against human K562 cells at 10 uM after 48 hrs by sulforhodamine B assay relative to control; assay type: functional
# [20] = system: MOLT-4; test: Cytotoxicity against human MOLT4 cells at 10 uM after 48 hrs by sulforhodamine B assay relative to control; assay type: functional
# [21] = system: T47D; test: Cytotoxicity against human T47D cells at 10 uM after 48 hrs by sulforhodamine B assay relative to control; assay type: functional
# [22] = system: SK-MEL-28; test: Cytotoxicity against human SK-MEL-28 cells at 10 uM after 48 hrs by sulforhodamine B assay relative to control; assay type: functional
# [23] = system: OVCAR-5; test: Cytotoxicity against human OVCAR5 cells at 10 uM after 48 hrs by sulforhodamine B assay relative to control; assay type: functional
# [24] = system: BT-549; test: Cytotoxicity against human BT549 cells at 10 uM after 48 hrs by sulforhodamine B assay relative to control; assay type: functional
# [25] = system: COLO 205; test: Cytotoxicity against human COLO205 cells at 10 uM after 48 hrs by sulforhodamine B assay relative to control; assay type: functional
# [26] = system: SK-MEL-2; test: Cytotoxicity against human SK-MEL-2 cells at 10 uM after 48 hrs by sulforhodamine B assay relative to control; assay type: functional
# [27] = system: MDA-MB-435; test: Cytotoxicity against human MDA-MB-435 cells at 10 uM after 48 hrs by sulforhodamine B assay relative to control; assay type: functional
# [28] = system: KM12; test: Cytotoxicity against human KM12 cells at 10 uM after 48 hrs by sulforhodamine B assay relative to control; assay type: functional
# [29] = system: SW-620; test: Cytotoxicity against human SW620 cells at 10 uM after 48 hrs by sulforhodamine B assay relative to control; assay type: functional
# [30] = system: SF-295; test: Cytotoxicity against human SF295 cells at 10 uM after 48 hrs by sulforhodamine B assay relative to control; assay type: functional
# [31] = system: HCT-116; test: Cytotoxicity against human HCT116 cells at 10 uM after 48 hrs by sulforhodamine B assay relative to control; assay type: functional
# [32] = system: SNB-75; test: Cytotoxicity against human SNB75 cells at 10 uM after 48 hrs by sulforhodamine B assay relative to control; assay type: functional
# [33] = system: SF-268; test: Cytotoxicity against human SF268 cells at 10 uM after 48 hrs by sulforhodamine B assay relative to control; assay type: functional
# [34] = system: SK-MEL-5; test: Cytotoxicity against human SK-MEL-5 cells at 10 uM after 48 hrs by sulforhodamine B assay relative to control; assay type: functional
# [35] = system: MDA-MB-231; test: Cytotoxicity against human MDA-MB-231 cells at 10 uM after 48 hrs by sulforhodamine B assay relative to control; assay type: functional
# [36] = system: UO-31; test: Cytotoxicity against human UO31 cells at 10 uM after 48 hrs by sulforhodamine B assay relative to control; assay type: functional
# [37] = system: A549; test: Cytotoxicity against human A549 cells at 10 uM after 48 hrs by sulforhodamine B assay relative to control; assay type: functional
# [38] = system: NCI-H460; test: Cytotoxicity against human NCI-H460 cells at 10 uM after 48 hrs by sulforhodamine B assay relative to control; assay type: functional
# [39] = system: RPMI-8226; test: Cytotoxicity against human RPMI8226 cells at 10 uM after 48 hrs by sulforhodamine B assay relative to control; assay type: functional
# [40] = system: 786-0; test: Cytotoxicity against human 786-0 cells at 10 uM after 48 hrs by sulforhodamine B assay relative to control; assay type: functional
# [41] = system: NCI-H322M; test: Cytotoxicity against human NCI-H322M cells at 10 uM after 48 hrs by sulforhodamine B assay relative to control; assay type: functional
# [42] = system: Malme-3M; test: Cytotoxicity against human MALME-3M cells at 10 uM after 48 hrs by sulforhodamine B assay relative to control; assay type: functional
# [43] = system: HL-60(TB); test: Cytotoxicity against human HL-60(TB) cells at 10 uM after 48 hrs by sulforhodamine B assay relative to control; assay type: functional
# [44] = system: HOP-62; test: Cytotoxicity against human HOP62 cells at 10 uM after 48 hrs by sulforhodamine B assay relative to control; assay type: functional
# [45] = Cytotoxicity against human Hs 578T cells at 10 uM after 48 hrs by sulforhodamine B assay relative to control; assay type: functional
# [46] = system: RXF 393; test: Cytotoxicity against human RXF393 cells at 10 uM after 48 hrs by sulforhodamine B assay relative to control; assay type: functional
# [47] = system: MDA-MB-468; test: Cytotoxicity against human MDA-MB-468 cells at 10 uM after 48 hrs by sulforhodamine B assay relative to control; assay type: functional
# [48] = system: HCC 2998; test: Cytotoxicity against human HCC2998 cells at 10 uM after 48 hrs by sulforhodamine B assay relative to control; assay type: functional
# [49] = system: ACHN; test: Cytotoxicity against human ACHN cells at 10 uM after 48 hrs by sulforhodamine B assay relative to control; assay type: functional
# [50] = system: IGROV-1; test: Cytotoxicity against human IGROV1 cells at 10 uM after 48 hrs by sulforhodamine B assay relative to control; assay type: functional
# [51] = system: OVCAR-8; test: Cytotoxicity against human OVCAR8 cells at 10 uM after 48 hrs by sulforhodamine B assay relative to control; assay type: functional
# [52] = system: DU-145; test: Cytotoxicity against human DU145 cells at 10 uM after 48 hrs by sulforhodamine B assay relative to control; assay type: functional
# [53] = system: U-251; test: Cytotoxicity against human U251 cells at 10 uM after 48 hrs by sulforhodamine B assay relative to control; assay type: functional
# [54] = system: NCI-H522; test: Cytotoxicity against human NCI-H522 cells at 10 uM after 48 hrs by sulforhodamine B assay relative to control; assay type: functional
# [55] = system: UACC-257; test: Cytotoxicity against human UACC257 cells at 10 uM after 48 hrs by sulforhodamine B assay relative to control; assay type: functional
# [56] = system: CCRF-CEM; test: Cytotoxicity against human CCRF-CEM cells at 10 uM after 48 hrs by sulforhodamine B assay relative to control; assay type: functional
# [57] = system: A498; test: Cytotoxicity against human A498 cells at 10 uM after 48 hrs by sulforhodamine B assay relative to control; assay type: functional
# [58] = system: SN12C; test: Cytotoxicity against human SN12C cells at 10 uM after 48 hrs by sulforhodamine B assay relative to control; assay type: functional
# [59] = system: PC-3; test: Cytotoxicity against human PC3 cells after 48 hrs by sulforhodamine B assay; assay type: functional, cell-based; conditions: PC-3, 48 h
smiles,measurement,setting,value
O=C(CCN1CCCC1)Nc1ccc2c(c1)C(=O)c1cc(NC(=O)CCN3CCCC3)ccc1C2=O,GI50,[1],3.89 µM
CCSCCC(=O)Nc1ccc2c(c1)C(=O)c1cc(NC(=O)CCSCC)ccc1-2,Activity,[2],104.85%
same,Activity,[3],110.74%
same,Activity,[4],108.37%
same,Activity,[5],107.97%
same,Activity,[6],103.59%
same,Activity,[7],69.5%
same,inhibition,[8],inactive
same,Activity,[9],100%
same,Activity,[10],104.94%
same,Activity,[11],103.43%
same,Activity,[12],86.16%
same,Activity,[13],92.74%
same,Activity,[14],101.8%
same,Activity,[15],123.89%
same,Activity,[16],94.51%
same,Activity,[17],100.62%
same,Activity,[18],106.91%
same,Activity,[19],102.87%
same,Activity,[20],102.08%
same,Activity,[21],103.44%
same,Activity,[22],103.35%
same,Activity,[23],109.71%
same,Activity,[24],97.04%
same,Activity,[25],118.9%
same,Activity,[26],117.38%
same,Activity,[27],112.56%
same,Activity,[28],117.91%
same,Activity,[29],116.5%
same,Activity,[30],85.58%
same,Activity,[31],100.1%
same,Activity,[32],92.1%
same,Activity,[33],122.03%
same,Activity,[34],108.49%
same,Activity,[35],118.39%
same,Activity,[36],92.9%
same,Activity,[37],106.07%
same,Activity,[38],108.3%
same,Activity,[39],103.94%
same,Activity,[40],96.11%
same,Activity,[41],117.16%
same,Activity,[42],125.15%
same,Activity,[43],109.4%
same,Activity,[44],119.93%
same,Activity,[45],109.39%
same,Activity,[46],105.75%
same,Activity,[47],109.99%
same,Activity,[48],107.5%
same,Activity,[49],112.08%
same,Activity,[50],122.92%
same,Activity,[51],94.28%
same,Activity,[52],112.53%
same,Activity,[53],102.62%
same,Activity,[54],90.06%
same,Activity,[55],113.41%
same,Activity,[56],96.61%
same,Activity,[57],124.53%
same,Activity,[58],102.91%
same,IC50,[59],> 30 µM
